From EP4772500A1, “NOVEL ISOXAZOLE COMPOUND AS TM4SF5-SPECIFIC INHIBITOR AND USE THEREOF” (Seoul National University R&DB Foundation, priority 2023, dated 2025)

Biological target: T1, TM4SF5 (Homo sapiens, UniProt O14894)
T1 sequence (O14894 1-197): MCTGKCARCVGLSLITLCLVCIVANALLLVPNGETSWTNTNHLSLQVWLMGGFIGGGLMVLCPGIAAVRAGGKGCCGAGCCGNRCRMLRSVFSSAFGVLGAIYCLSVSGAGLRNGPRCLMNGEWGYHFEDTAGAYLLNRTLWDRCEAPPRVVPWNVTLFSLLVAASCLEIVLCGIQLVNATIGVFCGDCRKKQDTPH
Assay: Streptavidin pulldown and Western blotting: binding between TM4SF5 and cell membrane receptors/signaling factors
Type: cell-based
Set-up: expressed in transfected cells; host or cells: SNU449 human hepatocellular carcinoma cells, stably transfected
Conditions: 24 hours
Method: Cells were cultured to ~60% density in a cell incubator at 37°C and 5% CO2, and then transfected using PEI and cultured in a cell incubator at 37°C for two days. After cultivation, cell extracts were obtained by the method described above. After precipitating a desired protein from the cell extracts using an immunoprecipitation method, the binding proteins were identified by the Western blot technique described above. Specifically, cells cultured in a 100 mm cell culture dish for two days were washed twice with PBS, and protease inhibitor cocktails (GenDepot, USA) were added to 500 µl of immunoprecipitation lysis buffer (0.5% Triton X-100 or Brij 58, 40 mM HEPES, 150 mM NaCl, 1 mM EDTA, pH 7.4), followed by treatment at 4°C for 15 minutes. […] Proteins therein were quantified using a BCA reagent (Thermo Scientifics, USA). An electrophoresis sample was prepared by adding 4x laemmli sample buffer to a portion of the quantified sample and boiling at 100°C for 5 minutes. For immunoprecipitation, Streptavidin Agarose Resin (Thermo Fisher Scientific) or anti-HA antibody-coated Sepharose beads were added in proportion to the quantified protein amount, followed by rotation at 4°C for 4 hours, and then centrifugation was performed at 7,000x g at 4°C for 5 minutes and the supernatant was discarded. […]

Structure (SMILES) | binding of TM4SF5 to EGFR, CD44, and GLUT4 (3 µM, SNU449 (FIG. 4)) | binding between TM4SF5 and EGFR, integrin α5, CD133, CD44, mTOR, IL-6R α, GLUT1, and GLUT4 (5 µM, SNU449 (FIG. 6))
COc1ccc(-c2cc(-c3ccc(N)cc3)no2)cc1 [ST-1-025, 4-(5-(4-methoxyphenyl)isoxazole-3-yl)aniline] | slightly inhibited | –
COc1ccc(-c2cc(-c3ccc(NC(C)=O)cc3)no2)cc1 [ST-2-001, N-(4-(5-(4-methoxyphenyl)isoxazole-3-yl)phenyl)acetamide] | – | inhibited
